In patent publication US12187726B1, “Imidazo[1,5-a]pyrido[4,3-e]pyrazines as CK2 inhibitors” (KING FAISAL UNIVERSITY, priority 2024, dated 2025) one finds IC50 data, which are given here for one compound.

The structures appear in SMILES notation. pIC50: −log10 of the molar value.

The subject of assay [1] is HCT116 (colon) cancer cells. In words: MTT in vitro cytotoxic activity assay, HCT116. It is filed as cell-based. To be noted: Homo sapiens, HCT-116; cells exposed for 96 hours; 50% inhibition of cell proliferation; read-out: Cytotoxicity activity IC50, HCT116 (colon). How it is done:
(§1) Compounds 1-16 were screened for their in vitro cytotoxic activity utilizing a 3-(4,5-dimethyl-thiazol-2-yl)-2,5-diphenyltetrazolium bromide (MTT) assay against selected cancer human cell lines consisting of PC3 (prostate), HCT116 (colon), A375 (melanoma), H1299 (lung), MIAPaCa-2 (pancreas), HL60 (leukemia), MCF7 (breast), MDA-MB-231 (breast) (T. Mosmann, J. Immunol. Meth., 1983, 65, 55-63). The cells were cultured at 37° C. in RMPI1640 medium supplemented with 10% fetal bovine serum, 50 IU/mL penicillin, and 50 μg/mL streptomycin in a 5% CO2 incubator. All cells were sub-cultured 3 times/week by trypsinisation. Viable cells were seeded and allowed to adhere for 12 hours before a test drug was added in 96-well plates at an initial density of 1.0×10^5 cells/mL. Tumor cell lines were separately exposed to various concentrations of the tested compounds followed by incubation at a temperature of 37° C. during 96 hours inside a medium of fresh RMPI 1640. Cells were subsequently incubated at 37° C. using MTT at 0.5 mg/mL during 4 hours. After removal of supernatant, formazan crystals were dissolved in isopropanol and the optical density was measured at 570 nm. CX-4945 was used as a positive control.

Assay [2] has as its system PC3 (prostate) cancer cells. Briefly: MTT in vitro cytotoxic activity assay, PC3. It is filed as cell-based. The settings on record: Homo sapiens; cells exposed for 96 hours; 50% inhibition of cell proliferation; read-out: Cytotoxicity activity IC50, PC3 (prostate). How it is done: as §1
Assay [3] relates to A375 (melanoma) cancer cells. Briefly: MTT in vitro cytotoxic activity assay, A375. It is filed as cell-based. To be noted: Homo sapiens, A-375; cells exposed for 96 hours; 50% inhibition of cell proliferation; read-out: Cytotoxicity activity IC50, A375 (melanoma). How it is done: as §1
Assay [4] has as its system HL60 (leukemia) cancer cells. In words: MTT in vitro cytotoxic activity assay, HL60. It is filed as cell-based. To be noted: Homo sapiens, HL-60; cells exposed for 96 hours; 50% inhibition of cell proliferation; read-out: Cytotoxicity activity IC50, HL60 (leukemia). On the procedure: as §1
Assay [5] concerns H1299 (lung) cancer cells. Briefly: MTT in vitro cytotoxic activity assay, H1299. The settings on record: Homo sapiens, NCI-H1299; cells exposed for 96 hours; 50% inhibition of cell proliferation; read-out: Cytotoxicity activity IC50, H1299 (lung). It is filed as cell-based. On the procedure:
as §1

Assay [6] relates to MCF7 (breast) cancer cells. Briefly: MTT in vitro cytotoxic activity assay, MCF7. It is filed as cell-based. To be noted: Homo sapiens, cells exposed for 96 hours, 50% inhibition of cell proliferation, read-out: Cytotoxicity activity IC50, MCF7 (breast). How it is done:
as §1

In assay [7] the target is T1, recombinant human CK2 (RRββ-holoenzyme) (Homo sapiens, UniProt P68400).
T1 construct: purchased Millipore
T1 sequence (P68400 whole entry): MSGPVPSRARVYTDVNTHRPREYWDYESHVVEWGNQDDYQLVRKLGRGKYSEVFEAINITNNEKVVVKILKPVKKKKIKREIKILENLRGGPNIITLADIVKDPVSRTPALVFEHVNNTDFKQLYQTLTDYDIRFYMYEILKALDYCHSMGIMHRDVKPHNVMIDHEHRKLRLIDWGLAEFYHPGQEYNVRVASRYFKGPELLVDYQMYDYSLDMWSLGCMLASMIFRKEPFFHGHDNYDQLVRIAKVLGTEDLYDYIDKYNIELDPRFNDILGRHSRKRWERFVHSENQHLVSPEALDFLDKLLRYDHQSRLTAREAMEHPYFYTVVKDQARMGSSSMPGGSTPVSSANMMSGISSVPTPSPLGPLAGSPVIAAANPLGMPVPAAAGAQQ
T1 sequence (P67870 whole entry partner): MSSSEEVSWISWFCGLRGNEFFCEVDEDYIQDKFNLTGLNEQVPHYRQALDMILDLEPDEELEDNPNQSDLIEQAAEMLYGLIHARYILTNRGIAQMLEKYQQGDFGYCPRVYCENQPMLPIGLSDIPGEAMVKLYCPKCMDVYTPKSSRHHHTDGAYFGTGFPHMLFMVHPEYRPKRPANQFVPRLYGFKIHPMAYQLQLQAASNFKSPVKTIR
Briefly: CK2 Kinase Assay (33P-ATP, filter plate). To be noted: final ATP concentration 15 μM; 10 min at 30° C.; read-out: protein kinase CK2 IC50. It is filed as biochemical. On the procedure: CK2 Kinase Assay was conducted using the protocol as described in Pierre F. et al; J. Med. Chem. 2011, 54, 635-654. The tested compounds in aqueous solution were added at a volume of 10 μL to a reaction mixture comprising 10 μL of assay dilution buffer (ADB; 20 mM MOPS, pH 7.2, 25 mM β-glycerol phosphate, 5 mM EGTA, 1 mM sodium orthovanadate, and 1 mM dithiothreitol), 10 μL of substrate peptide (RRRDDDSDDD, dissolved in ADB at a concentration of 1 mM), 10 μL of recombinant human CK2 (RRββ-holoenzyme, 25 ng dissolved in ADB; Millipore). Reactions were initiated by the addition of 10 μL of ATP solution (90% 75 mMMgCl2, 75 μM ATP (final ATP concentration: 15 μM) dissolved in ADB; 10% [γ-33P] ATP (stock 1mCi/100 μL; 3000 Ci/mmol (Perkin-Elmer) and maintained for 10 min at 30° C. The reactions were quenched with 100 μL of 0.75% phosphoric acid and then transferred to and filtered through a phosphor cellulose filter plate (Millipore). After washing each well five times with 0.75% phosphoric acid, the plate was dried under vacuum for 5 min and, following the addition of 15 μL of scintillation fluid to each well, the residual radioactivity was measured using a Wallac luminescence counter. The IC50 values were derived from eight concentrations of test inhibitors.

In assay [8] the test system is MIAPaCa-2 (pancreas) cancer cells. Briefly: MTT in vitro cytotoxic activity assay, MIAPaCa-2. It is filed as cell-based. To be noted: Homo sapiens, MIA PaCa-2; cells exposed for 96 hours; 50% inhibition of cell proliferation; read-out: Cytotoxicity activity IC50, MIAPaCa-2 (pancreas). How it is done:
as §1

In assay [9] the test system is MDA-MB-231 (breast) cancer cells. Briefly: MTT in vitro cytotoxic activity assay, MDA-MB-231. The settings on record: Homo sapiens, cells exposed for 96 hours, 50% inhibition of cell proliferation, read-out: Cytotoxicity activity IC50, MDA-MB-231 (breast). It is filed as cell-based. How it is done:
as §1

As a reminder, the pIC50 is the negative decadic logarithm of the IC50, by convention in mol/L. On to `O=C(O)c1ncn2c1c(Nc1cccc(Cl)c1)nc1ccncc12` [Compound 1, 4-((3-chlorophenyl)amino) imidazo[1,5-a]pyrido[4,3-e]pyrazine-3-carboxylic acid], for which the pIC50 in assay [1] was 5.74; in [2] it was 5.68; in assay [3], 5.48; in assay [4] it was 5.59; in assay [5], 5.60; in [6], 5.23. For the same compound, the pIC50 was 7.44 in assay [7], 5.96 in [8] and 5.28 in [9].
